The source of these data is patent publication US6770649B2, “1-[1-(hetero)aryl-1-perhydroxyalkylmethyl]-piperazine compounds, process for their preparation and pharmaceutical compositions containing them” (Solvay Pharmaceuticals GmbH, priority 2001, dated 2004).

The experiment concerns the target T1, human NK-2 receptor (Homo sapiens, UniProt P21452).
T1 construct: expressed in transfected cells; host or cells: CHO cells (membrane preparation)
T1 sequence (P21452 1-398): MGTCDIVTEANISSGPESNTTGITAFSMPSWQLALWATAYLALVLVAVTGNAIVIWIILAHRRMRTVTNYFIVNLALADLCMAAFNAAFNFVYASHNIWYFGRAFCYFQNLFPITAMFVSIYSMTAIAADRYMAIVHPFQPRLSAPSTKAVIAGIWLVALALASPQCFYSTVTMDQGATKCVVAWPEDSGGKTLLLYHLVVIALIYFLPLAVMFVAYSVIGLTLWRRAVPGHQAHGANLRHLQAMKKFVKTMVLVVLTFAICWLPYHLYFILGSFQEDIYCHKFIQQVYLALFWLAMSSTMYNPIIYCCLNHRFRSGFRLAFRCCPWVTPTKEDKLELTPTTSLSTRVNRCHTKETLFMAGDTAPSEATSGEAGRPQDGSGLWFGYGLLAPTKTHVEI
The experiment can be described thus: Binding power of the test substances to NK-2 receptors in vitro ([3H]-SR 48968 displacement, CHO cell membranes). To be noted: displacement of [3H]-SR 48968, 90 min incubation, average of at least three measurements, 10^-6 to 10^-10 mol/l, read-out: pKi, affinity to human NK-2 receptors (converted). The procedure:
1. Determination of the Binding Power of the Test Substances to NK-2 Receptors in vitro
The affinity of the test substances to human NK-2 receptors was measured in vitro. The ability of the test substances to displace the selective NK-2 receptor antagonist SR 48968 (=saredutant) used as reference ligand from its corresponding bond was determined.
The receptor binding studies were carried out with radioactively marked [^3H]-SR 48968 (from Amersham) as ligand. For the binding test, different samples of a membrane preparation of CHO cells (=[…]), which express the human NK-2 receptor (for preparation, see N. P. Gerard et al., Journal of Biological Chemistry 265/33 (1990) 20455-20462), were incubated for 90 minutes (=min.) with a solution of the marked ligand, with the incubation mixtures containing no test substance or additions of different concentrations of test substance. Then in each case the membrane-bound ligands in the samples were separated from free ligands by filtration. The fraction remaining in the filter was washed several times with buffer solution, before its radioactivity was measured using a liquid scintillation counter. That concentration which effects half-maximum displacement of the bound reference ligand was determined as IC50 of the respective test substance. The inhibition constant (Ki value) of the test substance was calculated from the respective IC50 value, and was stated as the negative logarithmised value thereof (pKi).
For the compounds of Examples 1 to 39, the affinity to human NK-2 receptors was determined in each case by at least three measurements of the test substances in concentration series of 10^−6 to 10^−10 mol/l. If several measurements were performed, the average thereof was listed each time.

Take `CN(CC(CCN1CCN(C(c2ccsc2)[C@H](O)CO)CC1)c1ccc(Cl)c(Cl)c1)C(=O)c1ccccc1` (mixture of isomers) [Example 8]: the Ki was no more than 10 nM.

For the compound `CN(CC(CCN1CCN(C(c2ccsc2)[C@@H](O)CO)CC1)c1ccc(Cl)c(Cl)c1)C(=O)c1ccccc1` (mixture of isomers) [Example 11], the Ki is no more than 10 nM.

Regarding `CN(CC(CCN1CCN(C(c2ccsc2)[C@H](O)[C@@H](O)CO)CC1)c1ccc(Cl)c(Cl)c1)C(=O)c1ccccc1` (mixture of isomers) [Example 16], the Ki is no more than 10 nM.

For `CN(CC(CCN1CCN(C(c2cccs2)[C@@H](O)[C@H](O)[C@H](O)CO)CC1)c1ccc(Cl)c(Cl)c1)C(=O)c1ccccc1` (mixture of isomers) [Example 19], the Ki was no more than 10 nM.

`CN(CC(CCN1CCN(C(c2ccsc2)[C@@H](O)[C@H](O)[C@@H](O)[C@@H](O)CO)CC1)c1ccc(Cl)c(Cl)c1)C(=O)c1ccccc1` (mixture of isomers) [Example 20]: the Ki is no more than 10 nM.

In the case of `CN(CC(CCN1CCN(C(c2ccsc2)[C@@H](O)[C@@H](O)[C@H](O)[C@H](O)CO)CC1)c1ccc(Cl)c(Cl)c1)C(=O)c1ccccc1` (mixture of isomers) [Example 21], the Ki was no more than 10 nM.

Turning to `CN(CC(CCN1CCN(C(c2ccsc2)[C@H](O)[C@@H](O)[C@H](O)[C@H](O)CO)CC1)c1ccc(Cl)c(Cl)c1)C(=O)c1ccccc1` (mixture of isomers) [Example 23], the Ki is no more than 10 nM.

Regarding `CN(CC(CCN1CCN(C(c2cccs2)[C@H](O)[C@@H](O)[C@H](O)CO)CC1)c1ccc(Cl)c(Cl)c1)C(=O)c1ccccc1` (mixture of isomers) [Example 24], the Ki was no more than 10 nM.

With `CN(CC(CCN1CCN(C(c2ccccc2)[C@H](O)[C@@H](O)[C@H](O)CO)CC1)c1ccc(Cl)c(Cl)c1)C(=O)c1ccccc1` (mixture of isomers) [Example 25], the Ki is no more than 10 nM.

Turning to `CN(CC(CCN1CCN(C(c2ccsc2)[C@@H](O)[C@@H](O)[C@@H](O)CO)CC1)c1ccc(Cl)c(Cl)c1)C(=O)c1ccccc1` (mixture of isomers) [Example 27], the Ki was no more than 10 nM.

Consider `CN(C[C@@H](CCN1CCN(C(c2ccco2)[C@H](O)CO)CC1)c1ccc(Cl)c(Cl)c1)C(=O)c1ccccc1` (stereo partly drawn) [Example 2, N-((2S)-2-(3,4-dichlorophenyl)-4-{4[(2S)-2,3-dihydroxy-1-(2-furyl)propyl]-1-piperazinyl}-butyl)-N-methylbenzamide], for which the Ki is no more than 1 nM.

Consider `CN(C[C@@H](CCN1CCN(C(c2ccco2)[C@H]2COC(=O)O2)CC1)c1ccc(Cl)c(Cl)c1)C(=O)c1ccccc1` (stereo partly drawn) [Example 4, N-[((2S)-2-(3,4)-dichlorophenyl)-4-(4-{2-furyl[(4S)-2-oxo-1,3-dioxolan-4-yl]methyl}-1-piperazinyl)butyl]-N-methylbenzamide], for which the Ki was no more than 1 nM.

As to `CN(C[C@@H](CCN1CCN(C(c2ccoc2)[C@H](O)CO)CC1)c1ccc(Cl)c(Cl)c1)C(=O)c1ccccc1` (stereo partly drawn) [Example 6, N-((2S)-2-(3,4-dichlorophenyl)-4-{4[(2S)-2,3-dihydroxy-1-(3-furyl)propyl]-1-piperazinyl}-butyl)-N-methylbenzamide], the Ki was no more than 1 nM.

Consider `CN(C[C@@H](CCN1CCN(C(c2ccco2)[C@H](O)[C@@H](O)[C@H](O)CO)CC1)c1ccc(Cl)c(Cl)c1)C(=O)c1ccccc1` (stereo partly drawn) [Example 10, N-((2S)-2-(3,4-dichlorophenyl)-4-{4[(2S,3R,4R)-2,3,4,5-tetrahydroxy-1-(2-furyl)pentyl]-1-piperazinyl}-butyl)-N-methylbenzamide], for which the Ki was no more than 10 nM.

Turning to `CN(C[C@@H](CCN1CCN(C(c2ccsc2)[C@@H](O)[C@H](O)[C@@H](O)CO)CC1)c1ccc(Cl)c(Cl)c1)C(=O)c1ccccc1` (stereo partly drawn) [Example 12, N-((2S)-2-(3,4-dichlorophenyl)-4-{4[(2R,3S,4S)-2,3,4,5-tetrahydroxy-1-(3-thienyl)pentyl]-1-piperazinyl}butyl)-N-methylbenzamide], the Ki was no more than 10 nM.

For `CN(CC(CCN1CCN(C(c2ccsc2)C(O)CO)CC1)c1ccc(Cl)c(Cl)c1)C(=O)c1ccccc1` (stereo not shown) [Example 18], the Ki was no more than 10 nM.

In the case of `CN(CC(CCN1CCN(C(c2cccs2)C(O)CO)CC1)c1ccc(Cl)c(Cl)c1)C(=O)c1ccccc1` (stereo not shown) [Example 22], the Ki was no more than 10 nM.

On to `CN(CC(CCN1CCN(C(CO)c2ccsc2)CC1)c1ccc(Cl)c(Cl)c1)C(=O)c1ccccc1` (stereo not shown) [Example 26], for which the Ki is no more than 10 nM.

Turning to `CN(C[C@@H](CCN1CCN(C(c2ccco2)[C@H]2COC(=S)O2)CC1)c1ccc(Cl)c(Cl)c1)C(=O)c1ccccc1` (stereo partly shown) [Example 39], the Ki is no more than 1 nM.
